Source: patent publication US10759683B2, “Methods for removing mercury contaminant from aqueous solutions, and bioreactors therefor” (priority 2018, dated 2020)
Values joined by “and” are separate entries in the source; they are usually repeats but may differ in a detail not shown here. Equal values may be shown once. Read-outs that look alike come from different tables or passages of the source.

Assays:
[1] = system: Geobacter sulfurreducens PCA; assay: Bioreactor Hg^0 production and growth of Geobacter sulfurreducens PCA supplied with Hg^II; format: cell-based; conditions: for Cumulative Hg(0) production / Final O.D. 600 nm: live cells, 28 C, Hg 250 pM
Source text: Geobacter sulfurreducens PCA cells were revived from cryostock and grown in defined medium (herein referred to as GSMM) according to previous work (Schaefer, J. K.; Morel, F. M. M., High methylation rates of mercury bound to cysteine by Geobacter sulfurreducens. Nature Geoscience 2009, 2, (2), 123-126) with the following modification: resazurin, the color indicator used to monitor anoxia, was removed to avoid issues with abiotic Hg reduction given that resazurin is a reducing agent. Cells were grown chemotrophically in the dark at 28° C. Cells took between 10 to 12 days to re-initiate growth, as such, cultures were maintained by re-inoculating fresh GSMM every 4 days with a 10% inoculum in a final volume of 10 mL. Upon reaching late exponential phase, a 10% inoculum was used to start cultures in GSMM with a final volume of 75 mL destined for the bioreactor. Upon reaching late exponential phase a 10% inoculum was used to inoculate the bioreactor where cells were supplied with Hg^II in 560 mL of PYEΔSO4^2− or GSMM medium (see Table 1).

[2] = system: Heliobacterium modesticaldum Ice1; assay: microbe, parasite or virus in culture
Method: The following strains were used in these studies: Heliobacterium modesticaldum Ice1, Clostridium acetobutylicum ATCC 824, Geobacter sulfurreducens PCA and Escherichia coli K-12. For phototrophic growth of H. modesticaldum, cells were supplied with constant illumination at 80 μmolphoton·m^−2·s^−1 at 50° C. whereas chemotrophic cells were grown at the same temperature in the dark in line with previous work.^32 C. acetobutylicum and E. coli were grown at 37° C. whereas G. sulfurreducens was grown at 28° C., all chemotrophically in the dark.
[…] Hg growth assays were carried out under the same phototrophic and chemotrophic conditions mentioned above.
Stock solutions used in cell cultures were all prepared following anaerobic techniques. […] For DMSO controls, the DMSO solution was bubbled with N2 prior to being added to the bioreactor; final concentration of DMSO in the reactor was 2.8 mM. Sodium nitrite stocks were prepared to a final concentration of 10 mM in ultra pure miliQ, filter-sterilized, sparged with N2 and stored at 4° C. in the dark; final concentration of NO2^− in the reactor was 10 μM. For experiments where HCO3^− was supplied, a stock solution of 1 M was prepared by dissolving NaHCO3 in ultra pure MiliQ and autoclaving for 30 minutes at 121° C. under 80% N2/20% CO2 atmosphere prior to use. Fumarate stock solutions were prepared at a final concentration of 40 mM in ultra pure miliQ, filter sterilized (0.2 μm pore size), bubbled with N2, sealed and crimped shut in sterile serum bottles prior to use. All equipment used in the anaerobic glove box was conditioned for at least 48 hours prior to use.
For Heliobacterium modesticaldum Ice1, new cultures were started from a cryostock for every bioreactor experiment. Cells were revived in DSMZ medium 655 (herein referred to as PYE) previously used to isolate H. modesticaldum (Kimble, L. K.; Mandelco, L.; Woese, C. R.; Madigan, M. T., Heliobacterium modesticaldum, sp. nov., a thermophilic heliobacterium of hot springs and volcanic soils. Archives of Microbiology 1995, 163, (4), 259-267). Cultures started from cryostock were grown phototrophically in PYE with an incandescent light source and constant illumination of 80 μmol photon m^−2s^−1 at 50° C. in line with previous work (Kimble, above) until reaching early stationary phase. Afterwards, a 10% inoculum was used to re-inoculate 10 mL of fresh PYE and cells were grown phototrophically (with the same light intensity) or chemotrophically (in the dark) at 50° C. These cultures were used to establish finely resolved growth curves and Hg growth assays (see FIGS. 1 and 2).
For experiments testing the effect of carbon source on Hg^0 production some modifications to the initial PYE medium growth protocol were made. Phototrophic H. modesticaldum cells were grown with pyruvate, acetate, acetate+HCO3^− and/or yeast extract alone as a carbon source. Cells were grown until late exponential phase before being subsampled to supply a 10% inoculum for cultures with a final volume 75 mL destined for the bioreactor and grown under the same conditions (see Table 1). […] Upon reaching late exponential phase, cells were inoculated into the bioreactor as a 10% inoculum in a final volume of 560 mL of media with the desired carbon source treatment.
Please refer to the methods section of Gregoire and Poulain (2016)^21 (which is herein incorporated by reference in its entirety) for a schematic of the bioreactor setup employed and the Hg^0 sampling methodology. Note that phototrophic bioreactor experiments were carried out using a 200 W incandescent clear light bulb at a constant illumination at 20 μmolphoton·m^−2·s^−1.

[3] = system: Heliobacterium modesticaldum Ice1; assay: Hg growth assays with Heliobacterium modesticaldum Ice1; format: cell-based; conditions: 500 nM HgCl2 supplied as two doses of 250 nM 24 hours apart, phototrophic and chemotrophic cells in PYE
Method: One-way ANOVAs were performed for phototrophic and chemotrophic Hg exposure assays using R statistical software (R Core Team R: A Language and Environment for Statistical Computing, R Foundation for Statistical Computing: 2014). In the event of detecting a significant difference, assumptions of constant variance and normality were verified with the Brusch-Pagan test and the Shapiro-Wilks test, respectively, with the significance thresholds set to p=0.05 for each test. Significant differences were then identified using the Tukey HSD test. The sample size employed for growth assays was n=3 per treatment. All assumptions were passed for significant differences and these values are reported in the Brief Description of the Drawings (see FIG. 4). A non-linear regression model was fit to the cumulative Hg^0 production data as a function of pyruvate concentration using Sigmaplot software. In this instance, a natural logarithmic function was fit to a data set of n=8. Given the significant fit, assumptions of constant variance and normality were verified with the Sigmaplot software with the significant threshold set to p=0.05 for each test.

[4] = system: Clostridium acetobutylicum ATCC 824; assay: Bioreactor Hg^0 production and growth of Clostridium acetobutylicum ATCC 824 supplied with Hg^II; format: cell-based; conditions: chemotrophy
Method: For Clostridium acetobutylicum ATCC 824, new cultures were started for every bioreactor experiment. Cells were revived in DSMZ medium 104b (herein referred to as PYX). Cells were grown in the dark at 37° C. until reaching early stationary phase after which point they were rotated as a 1% inoculum in a final volume of 10 mL into fresh PYX. Cells were grown to late exponential phase, and re-inoculated as a 1% inoculum in a final volume of 75 mL of PYX in cultures destined for the bioreactor. Experiments were performed in PYE where all SO4^2− salts were substituted with chloride salts (PYEΔSO4^2−) to avoid competition between Hg^II reduction and SO4^2− reduction. Cells were also supplied with Hg^II in DSMZ medium 104b to account for the effect of suboptimal growth medium (see Table 1 and Table 3). […] The initial volume of medium in the bioreactor was corrected to ensure that identical volumes were maintained throughout all experiments.

[5] = chemotrophy, pyruvate 20 mM + YE 4 g L-1, fumarate 40 mM
[6] = live cells, phototrophy, 50 C, acetate 30 mM + YE 4 g L-1, HCO3- 10 mM, Hg 250 pM
[7] = live cells, 37 C, pyruvate 20 mM + YE 4 g L-1 (PYEΔSO4^2-), NTZ 10 μM + DMSO 2.8 mM, Hg 250 pM
[8] = chemotrophy, pyruvate 20 mM + YE 4 g L-1 (PYEΔSO4^2-), NTZ 10 μM + DMSO 2.8 mM

O=C(O)/C=C/C(=O)O [Fumarate]
Cell growth ([1]; in the presence of fumarate): able to grow | Cumulative Hg(0) production ([1]; chemotrophy, acetate 10 mM (optimal growth medium), fumarate 40 mM): 19.81 pmol and 21.48 pmol | Cumulative Hg(0) production [1, 5]: 6.65 pmol | Final O.D. 600 nm [1, 5]: 0.185 | Decrease of Hg^0 production in the presence of fumarate ([1]; with vs without fumarate as terminal electron acceptor, pyruvate + YE): 50%

O=C([O-])O.[Na+] [HCO3—, NaHCO3]
Cumulative Hg(0) production [2, 6]: 43.31 pmol and 42.50 pmol | Final O.D. 600 nm [2, 6]: 0.02 and 0.039

[Cl][Hg][Cl] [Hg^II, HgCl2]
Cell health at increased mercury concentration ([2]; 2 nM Hg, phototrophically grown cells, 48 hours): unaffected | Physiological advantage / growth (rate, yield) with sublethal Hg [3]: No physiological advantage was observed except for a small increase in the yield of phototrophically grown cells

O=N[O-].[Na+] [NO2, Sodium nitrite]
Cumulative Hg(0) production [2]: 53.36 ± 0.13 pmol and 53.47 pmol and 53.66 pmol | Final O.D. 600 nm [2]: 0.034 and 0.023 | Increase in the amount of Hg^0 produced [2]: 30%

CC(=O)Oc1ccccc1C(=O)Nc1ncc([N+](=O)[O-])s1 [NTZ, nitazoxanide]
inhibition at 10 µM ([2]; Heliomicrobium modesticaldum, ICE1, read-out: Inhibition (decrease) of chemotrophic Hg^0 production compared to controls): 88% | Final O.D. 600 nm ([2]; live cells, chemotrophy (dark), 50 C, pyruvate 20 mM + YE 4 g L-1, NTZ 10 μM + DMSO 2.8 mM, Hg 250 pM): 0.065 and 0.057 | Cell growth ([2]; phototrophic cells, NTZ 10 μM): did not grow | Lag: peak of Hg^0 production occurring later than previously observed ([2]; phototrophic cells, NTZ 10 μM): 11 h | Decrease of Hg^0 production in the presence of NTZ ([4]; NTZ 10 μM vs DMSO control): 98% | Cumulative Hg(0) production [4, 7]: 1.20 pmol | Final O.D. 600 nm [4, 7]: 0.146 | Decrease of Hg^0 production in the presence of NTZ ([1]; chemotrophy, NTZ 10 μM vs DMSO control): 62% | Cumulative Hg(0) production [1, 8]: 3.19 pmol | Final O.D. 600 nm [1, 8]: 0.041
